Experimental data taken from patent US20120302573A1, “METHODS OF INHIBITING PRO MATRIX METALLOPROTEINASE ACTIVATION” (priority 2011, published 2012).
Counter-ions that a name gives are not always drawn.

Key:
[1] = biological target: T1, human catalytic MMP3, MMP3(100-265) (Homo sapiens, UniProt P08254); assay: Catalytic MMP3 enzyme assay (fluorogenic peptide M2110); format: biochemical
T1 construct: Catalytic MMP3 was amino acids 100-265 of human MMP3 from UniProtKB/Swiss-Prot P08254; 6x-Histidine tag (C); made in house; host or cells: E. coli
Description: Compounds were assessed for inhibition of human catalytic MMP3, MMP3(100-265) (SEQ ID NO:8), using a peptide (Mca-RPKPVE-Nva-WRK(Dnp)-NH2, Bachem M2110) that fluoresces upon cleavage by catalytic MMP3. […] The reaction volume was 100 μL. […] Final concentrations employed were 20 nM catalytic MMP3 and 20 μM M2110 substrate.

[2] = biological target: T2, proMMP9(67-444;ΔFnII) (SEQ ID NO:5) (Homo sapiens, UniProt P14780, DEL216-390); assay: ThermoFluor binding assay with proMMP9(67-444;ΔFnII)
T2 construct: amino acid pairs including: 29-215/391-444, 67-215/391-444, and 20-215/391-445, respectively; start methionine (N); made in house; host or cells: E. coli BL21(DE3) RIL
T2 sequence (P14780 with tags, fused parts or gaps DEL216-390): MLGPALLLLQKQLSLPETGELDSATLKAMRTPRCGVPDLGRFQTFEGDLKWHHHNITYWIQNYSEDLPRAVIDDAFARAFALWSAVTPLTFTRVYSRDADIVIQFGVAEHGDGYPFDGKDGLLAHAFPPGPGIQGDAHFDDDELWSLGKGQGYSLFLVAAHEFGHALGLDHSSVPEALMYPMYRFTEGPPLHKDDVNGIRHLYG
Summary of the method: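 Thermal shift (ThermoFluor) with 1,8-ANS dye; protein desalted by buffer exchange before use. Samples heated 40 to 90 °C at 1 °C/min, excitation 380-400 nm, emission 500±25 nm. Binding fitted using unfolding thermodynamic parameters from DSC and ThermoFluor dosing data.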

[3] = biological target: T3, proMMP9(20-445;ΔFnII) (SEQ ID NO:6) (Homo sapiens, UniProt P14780, DEL216-390); assay: ThermoFluor binding assay with proMMP9(20-445;ΔFnII)
T3 construct: amino acid pairs including: 29-215/391-444, 67-215/391-444, and 20-215/391-445, respectively; start methionine (N); made in house; host or cells: E. coli BL21(DE3) RIL
T3 sequence (P14780 with tags, fused parts or gaps DEL216-390): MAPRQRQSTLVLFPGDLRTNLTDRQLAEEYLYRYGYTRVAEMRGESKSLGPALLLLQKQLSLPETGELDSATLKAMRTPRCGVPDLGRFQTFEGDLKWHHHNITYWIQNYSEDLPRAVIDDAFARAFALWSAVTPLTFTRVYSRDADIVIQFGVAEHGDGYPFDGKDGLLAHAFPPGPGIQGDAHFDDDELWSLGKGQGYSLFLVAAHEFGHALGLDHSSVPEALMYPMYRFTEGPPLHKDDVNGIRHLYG
Summary of the method: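 Thermal shift with 1,8-ANS dye, heating from 40 to 90 °C at 1 °C/min. Fluorescence excited at 380–400 nm and read at 500±25 nm. Protein was buffer-exchanged by desalting, and binding fitted using heat capacity and thermodynamic parameters from DSC and ThermoFluor dosing data, with DMSO reference wells.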

[4] = biological target: T4, human catalytic MMP9 (Homo sapiens, UniProt P14780); assay: Catalytic MMP9 enzyme assay (fluorogenic peptide P-126); format: biochemical
T4 construct: purchased BioMol SE-244
Description: The assay buffer employed was 50 mM Hepes, pH 7.5, 10 mM CaCl2, 0.05% Brij-35. DMSO was included at a final concentration of 2%, arising from the test compound addition. The reaction volume was 100 μL. […] Initial velocities were plotted by use of a four-parameter logistics equation (GraphPad Prism® software) for determination of IC50, if required.

[5] = biological target: T5, full-length proMMP9(1-707) activation by catalytic MMP3 (Homo sapiens, UniProt P14780, R574P); assay: proMMP9/MMP3 P126 Activation Assay; format: biochemical; parameters: made in house; host or cells: E. coli (MMP3); details: proMMP9 from HEK293 cells
Description: The assay buffer employed was 50 mM Hepes, pH 7.5, 10 mM CaCl2, 0.05% Brij-35. DMSO was included at a final concentration of 2%, arising from the test compound addition. […] The reaction volume was 50 μL. […] Initial velocities were plotted by use of a four-parameter logistics equation (GraphPad Prism® software) for determination of IC50.

[6] = biological target: T6, proMMP13(1-268) (SEQ ID NO:7) (Homo sapiens, UniProt P45452); assay: ThermoFluor binding assay with proMMP13(1-268)
T6 construct: 6x-histidine tag (C); made in house; host or cells: HEK293
Description: The ThermoFluor® (TF) assay is a 384-well plate-based binding assay that measures thermal stability of proteins (Biomol Screen 2001, 6, 429-40; Biochemistry 2005, 44, 5258-66). The experiments were carried out using instruments available from Johnson & Johnson Pharmaceutical Research & Development, LLC. TF dye used in all experiments was […] (1,8-ANS) (Invitrogen: A-47).
Compounds were arranged in a pre-dispensed plate (Greiner Bio-one: 781280), wherein compounds were serially diluted in 100% DMSO across 11 columns within a series. Columns 12 and 24 were used as DMSO reference and contained no compound. For multiple compound concentration-response experiments, the compound aliquots ([…]) were robotically predispensed directly into black 384-well polypropylene PCR microplates (Abgene: TF-0384/k) using a Cartesian Hummingbird liquid handler (DigiLab, Holliston, Mass.). Following compound dispense, protein and dye solutions were added to achieve the final assay volume of 3 μL. The assay solutions were overlayed with 1 μL of silicone oil (Fluka, type DC 200: 85411) to prevent evaporation.
Assay plates were robotically loaded onto a thermostatically controlled PCR-type thermal block and then heated from 40 to 90° C. at a ramp-rate of 1° C./min for all experiments. Fluorescence was measured by continuous illumination with UV light (Hamamatsu LC6) supplied via fiber optics and filtered through a band-pass filter (380-400 nm; >6 OD cutoff). Fluorescence emission of the entire 384-well plate was detected by measuring light intensity using a CCD camera (Sensys, Roper Scientific) filtered to detect 500±25 nm, resulting in simultaneous and independent readings of all 384 wells. A single image with 20-sec exposure time was collected at each temperature, and the sum of the pixel intensity in a given area of the assay plate was recorded vs temperature and fit to standard equations to yield the Tm (J Biomol Screen 2001, 6, 429-40).
Thermodynamic parameters necessary for fitting compound binding for each proMMP were estimated by differential scanning calorimetry (DSC) and from ThermoFluor® data. The heat capacity of unfolding for each protein was estimated from the molecular weight and from ThermoFluor® dosing data.
The proMMP13(1-268) (SEQ ID NO:7) protein sample preparations included a desalting buffer exchange step via a PD-10 gravity column (GE Healthcare). The desalting buffer exchange was performed prior to diluting the protein to the final assay concentration of 3.5 μM. The concentration of proMMP13(1-268) (SEQ ID NO:7) was estimated spectrophotometrically based on a calculated extinction coefficient of ε280=37000 M^−1 cm^−1, a calculated molecular weight of 30.8 kDa, and calculated pI of 5.33. ThermoFluor® reference conditions were defined as follows: 100 μg/mL proMMP13(1-268) (SEQ ID NO:7), 25 μM 1,8-ANS, pH 7.0 Buffer (50 mM HEPES pH 7.0, 100 mM NaCl, 0.001% Tween-20, 2.5 mM MgCl2, 300 μM CaCl2). The thermodynamic parameters for proMMP13(1-268) (SEQ ID NO:7) are as follows: Tm (° C.)=67 (+/−0.1), ΔUH(Tm) (cal mol^−1)=107000(+/−5000), ΔUS(Tm) (cal mol^−1 K^−1)=318, ΔUCp (cal mol^−1 K^−1)=2600.

[7] = biological target: T5, full-length proMMP9(1-707) activation by catalytic MMP3; assay: ProMMP9/MMP3 DQ Gelatin Activation Assay;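 further: readout is fluorescence of quenched fluorescein gelatin cut by activated MMP9, 30 min activation at 37 °C, inhibition relative to DMSO-only controls with EDTA as blank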; format: biochemical; parameters: made in house; host or cells: COS-1 (proMMP9); E. coli (MMP3); details: proMMP9 from COS-1 cells; read-out: ProMMP9/MMP3 DQ gel, IC50

T1 sequence (P08254 with tags, fused parts or gaps): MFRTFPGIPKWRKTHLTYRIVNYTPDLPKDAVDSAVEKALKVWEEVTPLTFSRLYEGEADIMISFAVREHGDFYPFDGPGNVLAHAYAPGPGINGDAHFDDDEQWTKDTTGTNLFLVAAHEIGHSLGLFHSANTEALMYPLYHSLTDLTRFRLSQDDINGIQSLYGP
T5 sequence (P14780 20-707 R574P): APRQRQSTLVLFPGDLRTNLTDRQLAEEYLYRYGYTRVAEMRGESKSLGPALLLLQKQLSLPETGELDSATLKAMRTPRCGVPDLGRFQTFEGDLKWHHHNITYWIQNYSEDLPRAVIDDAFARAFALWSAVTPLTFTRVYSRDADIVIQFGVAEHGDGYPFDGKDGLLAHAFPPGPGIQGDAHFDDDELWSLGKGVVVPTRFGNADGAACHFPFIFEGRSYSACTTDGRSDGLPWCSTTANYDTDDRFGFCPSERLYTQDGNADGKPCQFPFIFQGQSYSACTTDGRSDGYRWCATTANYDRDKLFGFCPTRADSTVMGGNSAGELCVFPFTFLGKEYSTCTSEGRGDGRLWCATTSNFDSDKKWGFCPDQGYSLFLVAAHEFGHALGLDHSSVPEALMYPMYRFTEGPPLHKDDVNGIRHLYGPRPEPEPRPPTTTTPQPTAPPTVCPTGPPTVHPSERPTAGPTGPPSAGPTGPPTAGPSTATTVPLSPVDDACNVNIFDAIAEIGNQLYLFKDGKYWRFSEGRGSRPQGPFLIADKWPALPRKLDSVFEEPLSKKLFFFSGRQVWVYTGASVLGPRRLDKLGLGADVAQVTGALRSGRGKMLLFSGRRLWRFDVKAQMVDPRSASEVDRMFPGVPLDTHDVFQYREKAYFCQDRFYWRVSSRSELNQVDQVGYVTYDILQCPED
T4 sequence (P14780 107-445 limits assumed): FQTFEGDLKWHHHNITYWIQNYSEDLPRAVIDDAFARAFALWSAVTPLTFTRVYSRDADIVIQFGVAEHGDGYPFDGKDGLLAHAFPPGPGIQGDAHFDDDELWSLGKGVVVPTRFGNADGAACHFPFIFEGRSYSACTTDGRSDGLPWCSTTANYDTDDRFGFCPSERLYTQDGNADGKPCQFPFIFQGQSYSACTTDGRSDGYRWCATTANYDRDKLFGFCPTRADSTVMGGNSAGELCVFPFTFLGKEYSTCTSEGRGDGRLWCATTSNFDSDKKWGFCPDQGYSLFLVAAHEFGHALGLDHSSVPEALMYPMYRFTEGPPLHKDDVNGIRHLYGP

Row | IC50 [1] | Kd [2] | Kd [3] | IC50 [4] | IC50 [5] | Kd [6] | IC50 [7] | Structure (SMILES)
1 | > 50 µM | 0.254 µM | 1.7 µM | > 50 µM | 1.5 µM | – | – | COc1ccc(F)cc1Nc1nc(-c2sc(N)nc2C)cs1 [Example 4, N^2-(5-Fluoro-2-methoxy-phenyl)-4′-methyl-[4,5′]bithiazolyl-2,2′-diamine.HBr]
2 | – | 2.92 µM | 13.8 µM | – | 3.6 µM | 12 µM | – | CC(=O)Nc1nc(C)c(-c2csc(Nc3cc(F)ccc3OC(C)C)n2)s1 [Example 12, N-[2-(5-Fluoro-2-isopropoxy-phenylamino)-4′-methyl-[4,5′]bithiazolyl-2′-yl]-acetamide]
3 | – | > 95 µM | > 95 µM | – | ~2 µM | > 95 µM | – | Cc1nc(C)c(-c2csc(Nc3cc(F)ccc3OC(C)C)n2)s1 [Example 13, (2′,4′-Dimethyl-[4,5′]bithiazolyl-2-yl)-(5-fluoro-2-isopropoxy-phenyl)-amine]
4 | – | 8.9 µM | > 95 µM | – | 3.6 µM | > 95 µM | – | COc1ccc(F)cc1Nc1nc(-c2cccnc2)cs1 [Example 16, (5-Fluoro-2-methoxy-phenyl)-(4-pyridin-3-yl-thiazol-2-yl)-amine.HBr]
5 | – | 0.82 µM | 3.64 µM | – | 4 µM | 43.5 µM | 2.3 µM | COc1ccccc1Nc1nc(-c2sc(NS(C)(=O)=O)nc2C)cs1 [Example 34, N-[2-(2-Methoxy-phenylamino)-4′-methyl-[4,5′]bithiazolyl-2′-yl]-methanesulfonamide]
6 | – | 1.12 µM | 3.76 µM | – | 2.5 µM | 14.5 µM | 3.1 µM | COc1ccccc1Nc1nc(-c2sc(N)nc2C)cs1 [Example 68, N^2-(2-Methoxy-phenyl)-4′-methyl-[4,5′]bithiazolyl-2,2′-diamine]
7 | – | 12 µM | 5.79 µM | – | > 20 µM | 0.668 µM | – | Brc1ccc(Nc2nc(-c3cccnc3)cs2)cn1 [Example 70, (6-Bromo-pyridin-3-yl)-(4-pyridin-3-yl-thiazol-2-yl)-amine]

Continued, compound first:

Row | Structure (SMILES) | IC50 [1] | Kd [2] | Kd [3] | IC50 [4] | IC50 [5] | Kd [6] | IC50 [7]
8 | COc1ccc(Br)cc1Nc1nc(-c2sc(NC(C)=O)nc2C)cs1 [Example 21, N-[2-(5-Bromo-2-methoxy-phenylamino)-4′-methyl-[4,5′]bithiazolyl-2′-yl]-acetamide.HBr] | – | 0.14 µM | 4.48 µM | – | 2.8 µM | 3.57 µM | –
9 | COc1ccccc1Nc1nc(-c2sc(C)cc2C)cs1 [Example 45, [4-(3,5-Dimethyl-thiophen-2-yl)-thiazol-2-yl]-(2-methoxy-phenyl)-amine.TFA] | – | 10 µM | 1.65 µM | – | > 50 µM | > 95 µM | > 20 µM
10 | COc1ccc(Cl)cc1Nc1nc(-c2sc(NC(C)=O)nc2C)cs1 [Example 59, N-[2-(5-Chloro-2-methoxy-phenylamino)-4′-methyl-[4,5′]bithiazolyl-2′-yl]-acetamide] | > 50 µM | 0.583 µM | 29.2 µM | > 50 µM | 0.52 µM | – | 0.34 µM
11 | COc1ccccc1Nc1nc(-c2sc(NC(C)=O)nc2C)cs1 [Example 65, N-[2-(2-Methoxy-phenylamino)-4′-methyl-[4,5′]bithiazolyl-2′-yl]-acetamide] | > 50 µM | – | – | – | – | 37.5 µM | –
12 | COc1ccc(Cl)cc1Nc1nc(-c2sc(N)nc2C)cs1 [Example 67, N^2-(5-Chloro-2-methoxy-phenyl)-4′-methyl-[4,5′]bithiazolyl-2,2′-diamine] | > 50 µM | 0.318 µM | 2.43 µM | > 50 µM | 2.1 µM | – | –
